Results on five compounds are retold here after US9447122B2, “Arginase inhibitors and methods of use thereof” (AstraZeneca AB, priority 2010, dated 2016).

Broadly, the Ki is a dissociation constant, usually derived from enzyme kinetics or from competition with a known ligand.

Where two headings read alike, the source gives them in different places. Bounds are passed on as bounds.

The target of test [1] is T1, human arginase I (Homo sapiens, UniProt P05089).
T1 sequence (P05089 1-322): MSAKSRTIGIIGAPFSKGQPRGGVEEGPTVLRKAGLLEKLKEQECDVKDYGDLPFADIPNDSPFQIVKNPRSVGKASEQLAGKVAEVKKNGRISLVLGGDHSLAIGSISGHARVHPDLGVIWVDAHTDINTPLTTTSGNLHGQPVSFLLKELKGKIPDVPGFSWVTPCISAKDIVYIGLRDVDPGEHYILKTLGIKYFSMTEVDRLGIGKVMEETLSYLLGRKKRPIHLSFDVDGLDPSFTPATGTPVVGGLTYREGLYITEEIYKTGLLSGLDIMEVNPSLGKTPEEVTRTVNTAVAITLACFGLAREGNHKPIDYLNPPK
Nature of the test: Arginase inhibition, QuantiChrom colorimetric urea assay, IC50 converted to Ki. The class given is biochemical. The method, then: (§1) For some compounds, their inhibitory potency at pH 7.5 was compared to the inhibitory potency of ABH at pH 7.5.
(§2) Quantitative determination of arginase activity was performed in a 96-well format by a colorimetric method using the QuantiChrom™ Arginase Assay Kit available from BioAssay Systems (Hayward, Calif., Catalog No. DARG-200) according to the manufacturer's protocol. Modifications were made to reagent quantities to suit the assaying of a highly purified sample.
(§3) The intensity of the color was directly proportional to the arginase activity in the sample.
(§4) The rate of urea production was measured in the presence of twelve different concentrations of each potential inhibitor compound. In a typical assay, seven different compounds were tested relative to a control inhibitor (e.g. ABH) against one enzyme (either human ArgI or human ArgII) at a particular pH (either 9.5 or 7.5). The pH of the solution was controlled using an appropriate pH buffering compound at 60 mM concentrations; for example, 60 mM glycine (pH 9.5) or 60 mM HEPES (pH 7.5). The half maximal inhibitory concentration (IC50) was determined by constructing a dose-response curve.

Test [2] has as its target T2, human arginase II (Homo sapiens, UniProt P78540).
T2 sequence (P78540 23-354): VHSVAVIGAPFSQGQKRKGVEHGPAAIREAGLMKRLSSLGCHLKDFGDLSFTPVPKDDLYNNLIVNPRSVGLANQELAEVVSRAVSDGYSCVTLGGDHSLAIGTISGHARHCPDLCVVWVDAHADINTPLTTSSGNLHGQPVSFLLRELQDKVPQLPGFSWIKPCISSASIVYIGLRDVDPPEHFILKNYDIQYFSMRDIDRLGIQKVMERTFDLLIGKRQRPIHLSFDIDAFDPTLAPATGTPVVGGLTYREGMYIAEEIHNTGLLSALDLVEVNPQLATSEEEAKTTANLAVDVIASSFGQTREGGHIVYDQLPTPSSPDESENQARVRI
Described as above. Type of test: biochemical. Here is the method:
as §1, §2, §3, §4

Test [3] deals with Rats. Nature of the test: Myocardial ischemia-reperfusion injury, infarct size IA/AR. The class given is in vivo. The conditions noted are these: rat, 2 hrs reperfusion. The method, then: Rats were intraperitoneally (IP) anesthetized to effect with pentobarbital (˜50 mg/kg), shaved and positioned in dorsal recumbence, intubated and ventilated (˜90 breaths/min, ˜2.5 mL tidal volume with 95% O2/5% CO2) with an adjustable small animal ventilator (Harvard Apparatus). Anesthesia was maintained with a continuous sodium pentobarbital infusion (to effect, ˜3 to 5 mg/kg/h, IV) until completion of the study via an indwelling catheter placed in a peripheral vein (e.g., femoral). Body temperature was continuously monitored throughout the duration of the surgical/experimental procedures via a rectal probe, and was maintained within the physiological range via a heated temperature-controlled (closed-loop) small animal surgical table/control unit (Vestavia Scientific).
Subsequently, transthoracic needle electrodes forming a single-lead ECG (e.g., lead II) were placed. Once a surgical plane of anesthesia had been reached, a femoral artery was isolated, dissected free from the surrounding tissue, and cannulated with a 2F high-fidelity micromanometer catheter (Millar Instruments). In order to record arterial/systemic pressures, this catheter was advanced towards the abdominal aorta. An in-dwelling catheter was also placed in a vein (i.e., jugular) for administration of the test article/vehicle, or stains (see below).
Finally, the animals were placed in right-lateral recumbence and the heart was exposed by a left-side thoracotomy/pericardiotomy. Ligatures were loosely placed (using a taper-point needle) around the proximal section of the left anterior descending artery (LAD). Tightening of these snares (via small pieces of polyethylene tubing) rendered a portion of myocardium temporarily ischemic.
Following surgical preparation, the animals were allowed to reach hemodynamic stability (for approximately 15 min), and baseline data was collected. It should be noted that in order to ensure experimental/data homogeneity, all animals must have satisfied the following entry criteria: heart rate >320 bpm and mean arterial pressure >80 mmHg. The anesthetic regime may be adjusted in order to ensure proper anesthesia/analgesia and to satisfy such inclusion criteria.
After hemodynamic stabilization and baseline measurements, the animals were treated with either vehicle or test article delivered as an intravenous bolus. Subsequently (approximately 15 min post-dosing), the animals were subjected to an acute 30 min ischemic insult by tightening of the LAD coronary artery snare. Myocardial ischemia was visually confirmed both by the appearance of cyanotic changes in distal distributions of the LAD as well as by the onset of electrocardiographic changes. After approximately 30 min of induced ischemia, the coronary snares were released and the previously ischemic myocardium was reperfused for up to 2 hrs. Treatments were not administered during either the ischemia and/or reperfusion periods. It should also be noted that in order to minimize any possible confounding effects on indices of myocardial injury, non-self-resolving malignant arrhythmias/rhythms (e.g., ventricular tachycardia/fibrillation) developing during reperfusion were considered terminal (i.e., the experiment was terminated prematurely).
At the completion of the protocol, irreversible myocardial injury (i.e., infarction) resulting from the I/R insult was evaluated. […]

Test [4] concerns Arg I and/or Arg II. Nature of the test: pH effect: inhibitory potency at pH 7.5 compared with pH 9.5. Type of test: biochemical, human. Here is the method:
as §1
as §4, with “curve. As IC50 values are dependent upon the measurement conditions, the IC50 values were converted to the inhibitor binding affinity (K1) using the Cheng-Prusoff equation and the affinity constant (Km) of L-arginine which was estimated with the same activity assay (see, e.g., Cheng et al., 1973, Biochem. Pharmacol. 22:3099-108).” for “curve.”

The target of test [5] is T3, arginase (Homo sapiens, UniProt P78540).
T3 sequence (P78540 23-354): T2 sequence (P78540 23-354)
The following applies: literature; cited from earlier work.

Test [6] concerns opossum internal anal sphincter muscle. The conditions noted are these: cited from earlier work.
In test [7] the test system is guinea pigs. The conditions noted are these: nebulizer treatment, allergic asthma model; cited from earlier work.
Test [8] has as its system rabbit and human penile corpus cavernosum. The conditions noted are these: rabbit and human tissue; cited from earlier work.
In test [9] the test system is live male rabbits. The following applies: cited from earlier work.
Test [10] has as its system corpus cavernosum of the diabetic person. The following applies: ex vivo; cited from earlier work.
The subject of test [11] is female rabbits. The conditions noted are these: cited from earlier work.
Test [12] has as its system animal model of multiple sclerosis (experimental autoimmune encephalomyelitis). The conditions noted are these: cited from earlier work.
Test [13] concerns prostate cancer. The conditions noted are these: cited from earlier work.
The subject of test [14] is breast cancer. The following applies: cited from earlier work.
Test [15] relates to humans. The conditions noted are these: subcutaneous administration; cited from earlier work.
[16] abbreviates: 1 mg/kg iv bolus about 15 min before 30 min ischemia.
Where [17] appears, read: 3 mg/kg iv bolus about 15 min before 30 min ischemia.
[18] abbreviates: Table 2, pH 7.5, read-out: human arginase I pH 7.5, Ki assigned value.
Where [19] appears, read: Table 2, pH 9.5, read-out: human arginase I pH 9.5, Ki assigned value.
Setting [20] is: Table 2, pH 7.5, read-out: human arginase II pH 7.5, Ki assigned value.
Setting [21] is: Table 2, pH 9.5, read-out: human arginase II pH 9.5, Ki assigned value.

In the case of `CS(=O)(=O)c1ccc(CN2CCN(CCCC(N)(CCCCB(O)O)C(=O)O)CC2)cc1` (stereo not shown) [Example 10], the Ki in [1] (Table 3, pH 7.5, read-out: human Arginase I pH 7.5, Ki assigned value) was below 0.01 µM; in test [1] (Table 3, pH 9.5, read-out: human Arginase I pH 9.5, Ki assigned value), 0.011 to 0.05 µM; in [2] (Table 3, pH 7.5, read-out: human Arginase II pH 7.5, Ki assigned value), 0.011 to 0.05 µM; in [2] (Table 3, pH 9.5, read-out: human Arginase II pH 9.5, Ki assigned value), 0.011 to 0.05 µM. Further, the “Mean IA/AR (%)” value is given as 24% in [3] (setting [16]), 22% in test [3] (setting [17]) and 17% in test [3] (10 mg/kg iv bolus about 15 min before 30 min ischemia).

For the compound `N[C@@H](CCCCB(O)O)C(=O)O` [ABH, 2(S)-amino-6-boronohexanoic acid], the Ki in [1] (setting [18]) was 0.051 to 0.1 µM; in [1] (setting [19]), 0.011 to 0.05 µM; in test [2] (setting [20]), 0.101 to 0.25 µM; in test [2] (setting [21]), 0.011 to 0.05 µM. Moreover, the “increased potency for at least one isozyme” value in [4] (Table 2, pH 7.5 vs pH 9.5) is on record as “no ^b”. The “potency at pH 7.5 as compared to pH 9.5, arginases” value in test [4] (both or at least one of the arginases) is “decrease in inhibitory potency”. Moreover, the “inhibitory potency at pH 7.5 vs pH 9.5” value in [5] was “much lower at pH 7.5 than at pH 9.5”. Besides, the “relaxation of internal anal sphincter muscle” value in test [6] is given as “relax this muscle”. The airway hyperresponsiveness entry in test [7] is “prevents airway hyperresponsiveness”. Also, the “NO-dependent relaxation of corpus cavernosum” value in [8] was “enhances the NO-dependent relaxation”. In addition, the erectile response result in test [9] is recorded as “enhances the erectile response”. Besides, the NO biosynthesis result in [10] is reported as “restores NO biosynthesis”. Besides, the “engorgement response in the genitalia” value in test [11] is “enhances the engorgement response”. Further, the disease score entry in [12] is “improves the disease score”.

For `NC(CCCCB(O)O)(CCCN1CCN(Cc2ccc(Cl)c(Cl)c2)CC1)C(=O)O` (stereo not shown) [Example 8], the Ki in test [1] (setting [18]) was below 0.01 µM; in test [1] (setting [19]), 0.011 to 0.05 µM; in [2] (setting [20]), 0.011 to 0.05 µM; in test [2] (setting [21]), 0.011 to 0.05 µM. For the same compound, the “Mean IA/AR (%)” value in [3] (setting [16]) came to 32%; in test [3] (setting [17]), 29%.

For the compound `N=C(NO)NCCC[C@H](N)C(=O)O` [N-hydroxy-L-arginine, N^Ω-hydroxy-L-arginine], the tumor immunotherapy result in test [13] was “facilitates tumor immunotherapy”. For the same compound, the “cell proliferation and apoptosis” value in test [14] is “inhibits cell proliferation and induces apoptosis”.

For the compound `N[C@@H](CSCCB(O)O)C(=O)O` [BEC, S-(2-boronoethyl)-L-cysteine], in test [5], the “inhibitory potency at pH 7.5 vs pH 9.5” value was “much lower at pH 7.5 than at pH 9.5”. Also, the vasodilation and circulation entry in test [15] was “vasodilatory and enhances circulation”.
